# Test results as given in patent publication US12247022B2, “Combinations for treatment of NASH/NAFLD and related diseases” (Pfizer Inc., priority 2018, dated 2025).
# Legend:
# Collagen = assay: Hepatic Picrosirius red staining (collagen), CDAHFD fed rats; type: in vivo, rat; conditions: twice daily for 6 weeks; Compound A 5 mg/kg, Compound D 30 mg/kg, or co-administration; 12 weeks on CDAHFD
# Method: A randomized, vehicle-controlled, 5-parallel arm study was conducted in male Wistar-Han rats (Charles River (Boston, MA)) fed a choline-deficient and high fat diet (CDAHFD) (Research diets; A16092003) to identify differences in improvements in markers of hepatic inflammation and fibrosis when administering either Compound A or Compound D alone as monotherapy or in combination. Standard laboratory conditions were used to house 60 rats (˜200 g); they were double housed and kept under 12:12-hour reverse light-dark schedule (lights off at 8:00 AM). Rats were fed choline deficient and high fat diet (CDAHFD) beginning 6-weeks prior to initiation of the study. Rats, randomized into 4 dosing groups (n=12/group), received twice daily administration of vehicle, Compound A (5 mg/kg) monotherapy, Compound D (30 mg/kg) monotherapy, or co-administration Compound A (5 mg/kg) and Compound D (30 mg/kg) for a period of 6-weeks. […] Histology was assessed following 6-weeks of drug administration which corresponded to 12 weeks on the CDAHFD. […]
# Following the 12-weeks on CDAHFD, the animals were sacrificed by CO2 asphyxiation. […] A portion of the pulverized liver sample from each animal was processed and analyzed for gene expression markers of fibrogenesis. Rat taqman probes against […]SMA and COL1A1 were all assessed using Actb as housekeeping gene on qPCR. […]
# [1] = system: Western diet fed Sprague Dawley rats; assay: Hepatic triglyceride (steatosis), Western diet fed rats; type: in vivo, rat; conditions: oral, Day 28
# Method: A randomized, vehicle-controlled, 8-parallel arm study was conducted in male Sprague-Dawley rats (Charles River (Boston, MA)) to obtain circulating and hepatic TG levels. Standard laboratory conditions were used to house 96 rats (˜200 g); they were double housed and kept under 12:12-hour reverse light-dark schedule (lights off at 8:00 AM). Rats were randomized into chow or Western diet groups and dose groups upon arrival and were given a 14-day lead-in period on either standard rat chow or Western diet prior to the start of the study. Standard Laboratory Rodent chow diet, 5053, was from LabDiet (PMI, St Louis, Missouri). Western Diet, D12079Bi, was from Research Diets (New Brunswick, New Jersey).
# Starting on Day 1 of the study, rats were dosed orally (10 mL/kg) with either vehicle control (0.5% MC (wt/volume %) in dionized water), low or high doses of Compound A (1 mg/kg or 10 mg/kg QD, respectively), low or high doses of Compound D (5 mg/kg or 30 mg/kg BID respectively), or co-administration of low doses (Compound A at 1 mg/kg QD and Compound D at 5 mg/kg BID), or co-administration of high doses (Compound A at 10 mg/kg QD and Compound D at 30 mg/kg BID)
# On the last day of the study (Day 28), rats were sacrificed for tissue collection after a 4 hour fast, 2 hours post-dose: two hours post-dose, blood for determining plasma analytes was collected via lateral tail vein and then the animals were sacrificed by CO2 asphyxiation. Blood was transferred to BD Microtainer tubes coated with K2EDTA (PN365974), centrifuged at 4° C. and the plasma transferred to a 96-well microtitre plate and stored at −20° C. Livers were rapidly removed, freeze-clamped in a Wollenberg clamp pre-cooled in liquid N2 individually wrapped in aluminum foil and subsequently stored at −80° C.
# Tissue pulverization: Frozen livers were rapidly pulverized on an aluminum block cooled in liquid N2, ensuring the tissue remained frozen throughout the pulverization. The pulverized tissues were transferred and stored in 7 mL polypropylene conical tubes at −80° C. until analysis.
# Extraction for hepatic triglyceride: Approximately 50 to 100 mg of pulverized tissue was added to a 2 mL lysing matrix D tube (MP Bio) containing 800 μL ice cold 1:1 CHCl3:MEOH. Samples were immediately extracted at 4° C. using Qiagen Tissue Lyser II (Qiagen Cat No. 85300) for 4 minutes at 30 Hz. The homogenate was then transferred to 13×100 mm glass tubes and placed on ice. The lysis tubes were then rinsed with 800 μL of 1:1 CHCl3:MeOH, vortexed for 30 seconds and added to the 13×100 mm glass tubes. While on ice, 2.4 ml of 100% CHCl3 was added to all glass vials to bring the ratio of CHCl3:MeOH to 4:2. Samples were then placed in the −20° C. freezer overnight. […]
# [2] = high dose (Compound A 10 mg/kg QD; Compound D 30 mg/kg BID; or both co-administered)
# [3] = low dose (Compound A 1 mg/kg QD; Compound D 5 mg/kg BID; or both co-administered)
Compound,reduction of Picosrius red (PSR) staining (Collagen) [%],"reduction in steatosis (hepatic triglyceride), relative to vehicle administered Western diet fed rats [1, 2] [%]","reduction in steatosis (hepatic triglyceride), relative to vehicle administered Western diet fed rats [1, 3] [%]"
"COc1cc(C(=O)N2CCC3(CC2)CC(=O)c2c(cnn2C(C)C)C3)cc(-c2ccc(C(=O)O)cc2)n1 [Compound A, 4-(4-(1-isopropyl-7-oxo-1,4,6,7-tetrahydrospiro[indazole-5,4′-piperidine]-1′-carbonyl)-6-methoxypyridin-2-yl)benzoic acid]",26,53,36
"CCOc1cccnc1Oc1cncc(-c2ncc(C(=O)N[C@H]3CCOC3)cn2)c1 [Compound D, (S)-2-(5-((3-ethoxypyridin-2-yl)oxy)pyridin-3-yl)-N-(tetrahydrofuran-3-yl)pyrimidine-5-carboxamide]",20,30,25
